Data on 17 molecules can be found in patent US5656726A, “Peptide inhibitors of urokinase receptor activity” (Chiron Corporation, priority 1995, dated 1997).

The target in this assay is T1, recombinant human urokinase receptor (truncated, soluble; suPAR) (Homo sapiens, UniProt Q03405).
T1 construct: expressed as a truncated, soluble molecule as described previously for mouse L-cells (Masucci et al., J Biol Chem (1991) 266:8655); made in house
As to the kind of experiment: 125I-ATF competition binding on immobilized soluble recombinant human urokinase receptor. Conditions: synthesized peptide, read-out: Affinity.

[1] abbreviates: corrected to 100 pM ATF, 0.3 μg/mL suPAR conditions, corrections about 3 × from previous assay conditions.
[2] abbreviates: assay performed at 100 pM ATF, 0.3 μg/mL suPAR in 200 μL (starred values).

Like-named read-outs stand apart in the source and are kept apart here. Peptide text beside a SMILES is read from it. Some results are limits rather than exact numbers.

T1 sequence (Q03405 23-299 limits assumed): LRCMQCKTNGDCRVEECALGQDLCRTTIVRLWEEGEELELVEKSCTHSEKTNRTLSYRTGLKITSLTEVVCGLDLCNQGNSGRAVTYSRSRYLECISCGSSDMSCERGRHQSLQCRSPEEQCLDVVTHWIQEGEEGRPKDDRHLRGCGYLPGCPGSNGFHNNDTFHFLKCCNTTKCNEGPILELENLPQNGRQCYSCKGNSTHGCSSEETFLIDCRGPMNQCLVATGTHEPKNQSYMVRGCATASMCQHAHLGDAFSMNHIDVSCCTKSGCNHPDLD

Consider `CC(C)C[C@H](NC(=O)[C@@H](NC(=O)CNC(=O)[C@@H](NC(=O)[C@H](CCC(N)=O)NC(=O)[C@H](CO)NC(=O)[C@H](CCC(=O)O)NC(=O)[C@H](C)N)[C@@H](C)O)[C@@H](C)O)C(=O)N[C@@H](CC(N)=O)C(=O)N[C@H](C(=O)N[C@@H](CC(C)C)C(=O)N[C@@H](Cc1ccccc1)C(=O)N[C@@H](Cc1c[nH]c2ccccc12)C(=O)N[C@@H](CC(N)=O)C(=O)N[C@H](C(=O)N[C@@H](CC(C)C)C(=O)N[C@@H](CCCNC(=N)N)C(N)=O)[C@@H](C)O)[C@@H](C)O` (H-AESQTGTLNTLFWNTLR-NH2), for which the Kd under setting [1] came to 7 µM.

Regarding `CC(C)C[C@H](NC(=O)[C@H](CCC(=O)O)NC(=O)[C@H](C)N)C(=O)N1CCC[C@H]1C(=O)N[C@@H](CCCNC(=N)N)C(=O)N[C@H](C(=O)N[C@@H](CC(N)=O)C(=O)N1CCC[C@H]1C(=O)N[C@H](C(=O)N[C@H](C(=O)N[C@@H](C)C(=O)N[C@H](C(=O)N[C@@H](CCCCN)C(=O)N[C@@H](CC(N)=O)C(=O)N1CCC[C@H]1C(=O)N[C@@H](CO)C(=O)N[C@@H](Cc1ccccc1)C(N)=O)C(C)C)[C@@H](C)O)C(C)C)[C@@H](C)O` (H-AELPRTNPVTAVKNPSF-NH2), under setting [1], the Kd is > 50 µM.

Regarding `CC[C@H](C)[C@H](NC(=O)[C@H](Cc1c[nH]c2ccccc12)NC(=O)[C@H](CCC(=O)O)NC(=O)[C@H](C)N)C(=O)N[C@H](C(=O)N[C@@H](CO)C(=O)N[C@@H](CO)C(=O)N1CCC[C@H]1C(=O)N1CCC[C@H]1C(=O)N[C@@H](CC(C)C)C(=O)N[C@H](C(=O)N[C@@H](CCC(N)=O)C(=O)N[C@@H](Cc1ccc(O)cc1)C(=O)N[C@@H](CC(C)C)C(=O)N[C@@H](Cc1c[nH]c2ccccc12)C(=O)NCC(=O)N[C@@H](Cc1ccccc1)C(N)=O)[C@@H](C)O)[C@@H](C)O` (H-AEWITSSPPLTQYLWGF-NH2), the Kd under setting [1] came to 10 µM.

For `CC[C@H](C)[C@H](NC(=O)[C@@H](NC(=O)[C@H](CCC(N)=O)NC(=O)[C@@H]1CCCN1C(=O)[C@H](CCC(=O)O)NC(=O)[C@@H]1CCCN1C(=O)[C@H](CC(C)C)NC(=O)[C@H](Cc1c[nH]cn1)NC(=O)[C@H](CC(C)C)NC(=O)[C@H](CC(N)=O)NC(=O)[C@H](Cc1ccc(O)cc1)NC(=O)[C@H](Cc1ccccc1)NC(=O)[C@H](CO)NC(=O)[C@H](Cc1c[nH]c2ccccc12)NC(=O)[C@H](CCC(=O)O)NC(=O)[C@H](C)N)[C@@H](C)O)C(=O)N[C@@H](Cc1ccccc1)C(N)=O` (H-AEWSFYNLHLPEPQTIF-NH2), the Kd under setting [1] amounted to 5 µM.

In the case of `CC(C)C[C@H](NC(=O)[C@H](CCCNC(=N)N)NC(=O)[C@H](CC(C)C)NC(=O)[C@@H]1CCCN1C(=O)[C@H](Cc1ccccc1)NC(=O)[C@H](CCC(N)=O)NC(=O)[C@H](Cc1ccc(O)cc1)NC(=O)[C@H](CC(C)C)NC(=O)[C@H](CCC(N)=O)NC(=O)[C@H](Cc1c[nH]c2ccccc12)NC(=O)[C@H](CC(C)C)NC(=O)[C@@H](NC(=O)[C@@H]1CCCN1C(=O)[C@H](CCC(=O)O)NC(=O)[C@H](C)N)[C@@H](C)O)C(=O)N[C@@H](CO)C(=O)NCC(N)=O` (H-AEPTLWQLYQFPLRLSG-NH2), the Kd under setting [1] was 5 µM.

For `CSCC[C@H](NC(=O)[C@H](CO)NC(=O)[C@@H]1CCCN1C(=O)[C@H](Cc1c[nH]c2ccccc12)NC(=O)[C@H](C)NC(=O)[C@H](Cc1ccc(O)cc1)NC(=O)[C@H](CCCNC(=N)N)NC(=O)[C@@H](NC(=O)[C@H](Cc1c[nH]c2ccccc12)NC(=O)[C@H](CC(C)C)NC(=O)[C@H](CO)NC(=O)[C@H](CO)NC(=O)[C@H](CCC(=O)O)NC(=O)[C@H](C)N)[C@@H](C)O)C(=O)N1CCC[C@H]1C(=O)N[C@@H](CO)C(=O)N[C@@H](Cc1ccc(O)cc1)C(N)=O` (H-AESSLWTRYAWPSMPSY-NH2), the Kd under setting [1] was 0.35 µM.

`CC[C@H](C)[C@H](NC(=O)[C@H](CO)NC(=O)[C@@H](NC(=O)[C@H](CC(C)C)NC(=O)[C@@H](NC(=O)[C@@H]1CCCN1C(=O)[C@H](CC(C)C)NC(=O)[C@H](CO)NC(=O)[C@H](CCC(=O)O)NC(=O)[C@H](C)N)[C@@H](C)O)[C@@H](C)O)C(=O)N[C@@H](CC(C)C)C(=O)N[C@@H](Cc1c[nH]c2ccccc12)C(=O)NCC(=O)N[C@@H](CCCCN)C(=O)N[C@@H](CCC(=O)O)C(=O)N[C@@H](CO)C(=O)N[C@H](C(N)=O)C(C)C` (H-AESLPTLTSILWGKESV-NH2): the Kd under setting [1] is 7 µM.

In the case of `CC(C)C[C@H](NC(=O)[C@H](CO)NC(=O)[C@H](CC(C)C)NC(=O)[C@@H]1CCCN1C(=O)[C@H](CCC(=O)O)NC(=O)[C@H](C)N)C(=O)N[C@@H](Cc1ccc(O)cc1)C(=O)N[C@@H](CCC(N)=O)C(=O)N[C@@H](CCCCN)C(=O)N[C@@H](CCCCN)C(=O)N[C@H](C(=O)N[C@@H](CC(C)C)C(=O)N[C@@H](CCCNC(=N)N)C(=O)N[C@@H](Cc1c[nH]cn1)C(=O)N[C@@H](Cc1ccccc1)C(=O)N[C@@H](C)C(=O)N[C@@H](CC(N)=O)C(N)=O)[C@@H](C)O` (H-AEPLSLYQKKTLRHFAN-NH2), the Kd under setting [1] was > 50 µM.

In the case of `CC[C@H](C)[C@H](NC(=O)[C@H](CCCNC(=N)N)NC(=O)[C@H](Cc1c[nH]c2ccccc12)NC(=O)[C@H](CC(C)C)NC(=O)[C@H](CO)NC(=O)[C@H](CO)NC(=O)[C@H](CCC(=O)O)NC(=O)[C@H](C)N)C(=O)N[C@@H](Cc1ccccc1)C(=O)N[C@@H](CO)C(=O)N1CCC[C@H]1C(=O)N[C@@H](CO)C(=O)N[C@@H](C)C(=O)N[C@@H](CC(C)C)C(=O)N[C@@H](CCSC)C(=O)N[C@@H](CCSC)C(=O)N[C@@H](CO)C(N)=O` (H-AESSLWRIFSPSALMMS-NH2), the Kd under setting [1] amounted to 7 µM.

Take `CC[C@H](C)[C@H](NC(=O)[C@H](Cc1c[nH]c2ccccc12)NC(=O)[C@H](CC(C)C)NC(=O)[C@H](CC(=O)O)NC(=O)[C@H](C)NC(=O)[C@H](CCC(=O)O)NC(=O)[C@H](CO)NC(=O)[C@H](CC(C)C)NC(=O)[C@H](CCC(=O)O)NC(=O)[C@H](C)N)C(=O)N[C@H](C(=O)N[C@@H](Cc1c[nH]c2ccccc12)C(=O)N[C@@H](Cc1ccccc1)C(=O)NCC(=O)N[C@@H](CCSC)C(=O)NCC(=O)N[C@@H](CO)C(N)=O)[C@@H](C)O` (H-AELSEADLWITWFGMGS-NH2): the Kd under setting [2] is 20 µM.

Regarding `CC[C@H](C)[C@H](NC(=O)[C@H](Cc1c[nH]cn1)NC(=O)[C@H](CCCCN)NC(=O)[C@H](CC(=O)O)NC(=O)[C@H](Cc1c[nH]cn1)NC(=O)[C@H](Cc1c[nH]c2ccccc12)NC(=O)[C@H](CC(C)C)NC(=O)[C@H](CC(=O)O)NC(=O)[C@H](CCSC)NC(=O)[C@H](Cc1ccccc1)NC(=O)[C@H](CC(C)C)NC(=O)[C@@H](NC(=O)[C@H](CCC(=O)O)NC(=O)[C@H](C)N)[C@@H](C)O)C(=O)N[C@@H](CC(C)C)C(=O)N[C@@H](CC(C)C)C(=O)N[C@H](C(N)=O)[C@@H](C)O` (H-AETLFMDLWHDKHILLT-NH2), under setting [2], the Kd came out at 7 µM.

With `CC(C)C[C@H](NC(=O)CNC(=O)[C@@H]1CCCN1C(=O)[C@H](CC(N)=O)NC(=O)[C@H](Cc1ccccc1)NC(=O)[C@H](Cc1ccccc1)NC(=O)[C@H](Cc1ccccc1)NC(=O)[C@H](CO)NC(=O)[C@H](Cc1c[nH]c2ccccc12)NC(=O)[C@H](CC(N)=O)NC(=O)[C@H](CC(C)C)NC(=O)[C@H](CC(C)C)NC(=O)[C@H](C)NC(=O)[C@@H]1CCCN1C(=O)[C@H](CCC(=O)O)NC(=O)[C@H](C)N)C(=O)N[C@@H](Cc1c[nH]cn1)C(N)=O` (H-AEPALLNWSFFFNPGLH-NH2), under setting [1], the Kd was 3 µM.

In the case of `CC[C@H](C)[C@H](NC(=O)[C@H](CCC(=O)O)NC(=O)[C@H](C)N)C(=O)N[C@@H](CO)C(=O)N[C@@H](Cc1ccccc1)C(=O)N[C@@H](CO)C(=O)N[C@@H](CCC(=O)O)C(=O)N[C@@H](CC(C)C)C(=O)N[C@@H](CCSC)C(=O)N[C@@H](Cc1c[nH]c2ccccc12)C(=O)N[C@@H](CC(C)C)C(=O)N[C@@H](CCCNC(=N)N)C(=O)N[C@@H](CO)C(=O)N[C@H](C(=O)N1CCC[C@H]1C(=O)N[C@@H](C)C(=O)N[C@@H](Cc1ccccc1)C(N)=O)[C@@H](C)O` (H-AEISFSELMWLRSTPAF-NH2), under setting [2], the Kd is 6 µM.

As for `CC(C)C[C@H](NC(=O)[C@H](CO)NC(=O)[C@H](CO)NC(=O)[C@H](Cc1ccc(O)cc1)NC(=O)[C@@H](NC(=O)[C@H](Cc1c[nH]cn1)NC(=O)[C@H](CCC(=O)O)NC(=O)[C@H](C)N)[C@@H](C)O)C(=O)N[C@@H](Cc1c[nH]c2ccccc12)C(=O)N[C@@H](CC(=O)O)C(=O)N[C@H](C(=O)N[C@@H](Cc1ccc(O)cc1)C(=O)N[C@@H](CO)C(=O)N1CCC[C@H]1C(=O)N[C@@H](CC(C)C)C(=O)N[C@@H](C)C(=O)N[C@@H](Cc1ccccc1)C(N)=O)[C@@H](C)O` (H-AEHTYSSLWDTYSPLAF-NH2), the Kd under setting [2] is 0.35 µM.

As to `CSCC[C@H](NC(=O)[C@@H](NC(=O)[C@H](CC(N)=O)NC(=O)[C@H](CO)NC(=O)[C@H](CC(C)C)NC(=O)[C@H](Cc1ccccc1)NC(=O)[C@H](Cc1c[nH]c2ccccc12)NC(=O)[C@H](C)NC(=O)[C@H](CCC(=O)O)NC(=O)[C@H](C)N)[C@@H](C)O)C(=O)N[C@@H](CCCCN)C(=O)N[C@@H](C)C(=O)N[C@@H](CC(C)C)C(=O)N[C@@H](CO)C(=O)N[C@@H](C)C(=O)N[C@@H](CCCNC(=N)N)C(=O)N[C@@H](CC(C)C)C(N)=O` (H-AEAWFLSNTMKALSARL-NH2), the Kd under setting [1] was 4 µM.

Consider `CSCC[C@H](NC(=O)[C@H](C)NC(=O)[C@H](CC(C)C)NC(=O)[C@@H]1CCCN1C(=O)[C@@H]1CCCN1C(=O)[C@H](CC(C)C)NC(=O)[C@H](CO)NC(=O)[C@H](Cc1ccc(O)cc1)NC(=O)[C@H](CC(C)C)NC(=O)[C@H](CO)NC(=O)[C@H](Cc1c[nH]c2ccccc12)NC(=O)[C@H](CC(C)C)NC(=O)[C@H](CC(=O)O)NC(=O)[C@H](CC(C)C)NC(=O)[C@@H]1CCCN1C(=O)[C@H](CCC(=O)O)NC(=O)[C@H](C)N)C(N)=O` (H-AEPLDLWSLYSLPPLAM-NH2), for which the Kd under setting [1] came out at 5 µM.

For the molecule `CC(C)C[C@H](NC(=O)[C@H](CCCCN)NC(=O)[C@H](CO)NC(=O)[C@H](Cc1ccc(O)cc1)NC(=O)[C@H](CCC(N)=O)NC(=O)[C@@H](NC(=O)[C@H](CO)NC(=O)[C@H](CCC(=O)O)NC(=O)[C@H](C)N)C(C)C)C(=O)N[C@@H](Cc1c[nH]c2ccccc12)C(=O)N[C@@H](CCCCN)C(=O)N1CCC[C@H]1C(=O)N[C@@H](CC(N)=O)C(=O)N[C@H](C(=O)N[C@H](C(=O)N[C@@H](CC(C)C)C(=O)N[C@@H](C)C(N)=O)[C@@H](C)O)[C@@H](C)O` (H-AESVQYSKLWKPNTTLA-NH2), under setting [1], the Kd is > 50 µM.
